# Test results: publication PMC5365645, “Preclinical Pharmacokinetics and Pharmacodynamic Target of SCY-078, a First-in-Class Orally Active Antifungal Glucan Synthesis Inhibitor, in Murine Models of Disseminated Candidiasis” (Antimicrobial Agents and Chemotherapy, 2017)
# What was measured:
# [1] = In vitro metabolic stability in hepatic microsomes; format: in vitro ADME, mouse; details: for remaining at 0.5 h, 1 µM: read-out: % remaining after 30 min; for half-life at 1 μM / microsomal CLint at 1 μM: pooled liver microsomes
# Protocol: The metabolic stability of SCY-078 was assessed after incubation with mouse, rat, dog, and human liver microsomes (Table 2) ([10]). […] The half-lives in rodent, dog, and human liver microsomes were ≥125, ≥29, and ≥42 min, respectively.
# (§1) The metabolic stability of SCY-078 was evaluated with male and female mouse, male rat, male and female dog, and mixed-gender human liver microsomes (XenoTech, Lenexa, KS). SCY-078 (1 μM) was incubated with pooled liver microsomes (0.5 mg protein/ml) for 0, 5, 10, 20, and 30 min at 37°C in the presence of NADPH. Aliquots were taken at each sampling time point and extracted with 5 volumes of ice-cold acetonitrile containing the internal standard (d9-SCY-078, 125 ng/ml). Supernatants from the incubation mixtures were analyzed for the parent compound by LC-MS/MS according to the conditions described below. The metabolic competency of microsomal preparations was established using the control compounds 7-ethoxycoumarin, propranolol, and verapamil. The in vitro intrinsic clearance (CLint), the CLint scaled to the in vivo intrinsic clearance (CL′int), and the half-life were determined for SCY-078 incubated with microsomes from each species.
# [2] = in vivo; parameters: species or system beagle dogs; details: beagle, dog; for half-life: t1/2
# Protocol: The pharmacokinetics and bioavailability of SCY-078 were evaluated in uninfected mouse, rat, and dog after p.o. and i.v. administration. The in vivo phases of the PK studies were performed at either […] (Waltham, MA) or MPI Research (Mattawan, MI) after an Institutional Animal Care and Use Committee (IACUC) review. […] and MPI Research are Association for Assessment and Accreditation of Laboratory Animal Care International (AAALAC)-approved facilities. […] The peak concentration (Cmax), the time to maximum concentration (Tmax), the half-life, and the AUC were determined from composite mean plasma concentration-time data for rodents and individual plasma concentration-time data for dogs. All doses and plasma concentrations of SCY-078 are presented as free base. Treatment naive male and female beagle dogs (n = 3/sex/group/time point) weighing 8 to 12 kg (males) or 6 to 10 kg (females) were given a single 5-mg/kg dose of SCY-078 as an i.v. injection over 5 min or an oral dose of 20 mg/kg as described above. Blood specimens were collected from the jugular vein at various time intervals to 72 h postdosing and processed as described above.
# [3] = tested on: C. parapsilosis isolate CP 20519.069; parameters: method as in PMID 25512406; details: stasis ref 6; cited from earlier work
# [4] = In vitro metabolic stability in hepatic microsomes, dog or human summary; format: in vitro ADME; details: both sexes, liver microsomes
# Protocol: Scaling intrinsic clearance to hepatic clearance based on liver blood flow indicates low clearance in rodents and moderate clearance in dogs and humans ([15]). These solubility, permeability, and metabolic stability data are consistent with SCY-078 being well absorbed from the intestine and able to achieve clinically relevant exposures following oral delivery.
# as §1
# [5] = in vivo; parameters: species or system Wistar Han rats; details: Wistar Han, rat; for half-life: t1/2
# Protocol: The pharmacokinetics and bioavailability of SCY-078 were evaluated in uninfected mouse, rat, and dog after p.o. and i.v. administration. The in vivo phases of the PK studies were performed at either […] (Waltham, MA) or MPI Research (Mattawan, MI) after an Institutional Animal Care and Use Committee (IACUC) review. […] and MPI Research are Association for Assessment and Accreditation of Laboratory Animal Care International (AAALAC)-approved facilities. […] The peak concentration (Cmax), the time to maximum concentration (Tmax), the half-life, and the AUC were determined from composite mean plasma concentration-time data for rodents and individual plasma concentration-time data for dogs. All doses and plasma concentrations of SCY-078 are presented as free base. Male and female Wistar Han rats (n = 3/sex/group/time point) weighing 0.329 to 0.398 kg (males) or 0.187 to 0.244 kg (females) received a single 5-mg/kg dose of SCY-078 as an i.v. injection in the lateral tail administered over 5 min or an oral dose of 20 mg/kg as described above. Blood specimens were collected from four animals/time point/group using a sparse sampling strategy via the sublingual vein at time intervals to 72 h postdosing and processed as described above.
# [6] = both sexes, po, 20 mg/kg, Bioavailability
structure (smiles),measurement,setting,value
"CC(C)[C@@H](C)[C@@]1(C)CC[C@]2(C)[C@H]3CC[C@@H]4[C@@]5(COC[C@@]4(C)[C@@H](OC[C@](C)(N)C(C)(C)C)[C@H](n4ncnc4-c4ccncc4)C5)C3=CC[C@@]2(C)[C@@H]1C(=O)O [SCY-078, (1S,4aR,6aS,7R,8R,10aR,10bR,12aR,14R,15R)-15-[[(2R)-2-amino-2,3,3-trimethylbutyl]oxy]-8-[(1R)-1,2-dimethylpropyl]-14-[5-(4-pyridinyl)-1H-1,2,4-triazol-1-yl]-1,6,6a,7,8,9,10,10a,10b,11,12,12a-dodecahydro-1,6a,8,10a-tetramethyl-4H-1,4a-propano-2H-phenanthro[1,2-c]pyran-7-carboxylic acid]","remaining at 0.5 h, 1 µM",[1]; female mouse liver microsomes,88%
same,"remaining at 0.5 h, 1 µM",[1]; male mouse liver microsomes,95%
same,half-life at 1 μM,[1]; female mouse liver microsomes,> 2.25 h
same,microsomal CLint at 1 μM,[1]; female mouse liver microsomes,< 10 µL/min/mg
same,half-life at 1 μM,[1]; male mouse liver microsomes,> 2.25 h
same,microsomal CLint at 1 μM,[1]; male mouse liver microsomes,< 10 µL/min/mg
same,AUC(0-inf),"[2]; both sexes, iv, 5 mg/kg",11900 ± 2200 ng·h/mL
same,AUC(0-t),"[2]; both sexes, iv, 5 mg/kg",10400 ± 1900 ng·h/mL
same,Vd,"[2]; both sexes, iv, 5 mg/kg",5.1 L/kg
same,clearance,"[2]; both sexes, iv, 5 mg/kg",7.5 mL/min/kg
same,half-life,"[2]; both sexes, iv, 5 mg/kg",~9.3 h
same,AUC(0-inf),"[2]; both sexes, po, 20 mg/kg",16000 ng·h/mL
same,AUC(0-t),"[2]; both sexes, po, 20 mg/kg",11500 ng·h/mL
same,Cmax,"[2]; both sexes, po, 20 mg/kg",810 ± 420 ng/mL
same,Tmax,"[2]; both sexes, po, 20 mg/kg",4 ± 2 h
same,bioavailability,[2]; [6],~35%
same,half-life,"[2]; both sexes, po, 20 mg/kg",~15.2 h
same,Dose normalized AUC0–∞ to a 1-mg/kg dose,"[2]; both, iv",~2.4 µg·h/mL
same,t1/2,"[2]; both, iv, 5 mg/kg",9.3 h
same,Total drug AUC0–24 target,[3],~18.8 µM·h
same,"remaining at 0.5 h, 1 µM","[4]; dog or human microsomes, read-out: % remaining after 30 min",~50%
same,half-life at 1 μM,"[4]; dog or human microsomes, read-out: Half-life (t0.5)",≥ 0.483 h
same,microsomal CLint at 1 μM,"[4]; larger species (dog, human), read-out: Intrinsic clearance",< 48 µL/min/mg
same,AUC(0-inf),"[5]; both sexes, iv, 5 mg/kg",11700 ng·h/mL
same,AUC(0-t),"[5]; both sexes, iv, 5 mg/kg",10300 ng·h/mL
same,Vd,"[5]; both sexes, iv, 5 mg/kg",4.7 L/kg
same,clearance,"[5]; both sexes, iv, 5 mg/kg",7.33 mL/min/kg
same,half-life,"[5]; both sexes, iv, 5 mg/kg",~8.7 h
same,AUC(0-inf),"[5]; both sexes, po, 20 mg/kg",20800 ng·h/mL
same,AUC(0-t),"[5]; both sexes, po, 20 mg/kg",16400 ng·h/mL
same,Cmax,"[5]; both sexes, po, 20 mg/kg",1010 ng/mL
same,Tmax,"[5]; both sexes, po, 20 mg/kg",8 h
same,bioavailability,[5]; [6],~45%
same,half-life,"[5]; both sexes, po, 20 mg/kg",~9.1 h
same,Dose normalized AUC0–∞ to a 1-mg/kg dose,"[5]; both, iv",~2.4 µg·h/mL
same,t1/2,"[5]; both, iv, 5 mg/kg",8.7 h
